Laboratory results reported in ChEMBL document CHEMBL5543157, “Lead Optimization of Butyrolactone I as an Orally Bioavailable Antiallergic Agent Targeting FcγRIIB” (J Med Chem, 2024).
Active and inactive are the calls of the source. The rule behind the calls is not given here.

Tests used:
RBL-2H3 [1] = assay: Antiallergic activity in rat RBL-2H3 cell model assessed as inhibition rate of IgE-mediated degranulation in by measuring […] at 50 uM relative to control; type: functional
RBL-2H3 [2] = assay: Antiallergic activity in rat RBL-2H3 cell model assessed as inhibition rate of IgE-mediated degranulation in by measuring […]; type: functional, cell-based
[3] = Cmax in Sprague-Dawley rat at 40 mg/kg, po measured upto 12 hrs by mass spectrometry; type: ADME, organism-based; conditions: in vivo
[4] = Half life in Sprague-Dawley rat at 10 mg/kg, iv measured upto 12 hrs by mass spectrometry; type: ADME, organism-based; conditions: in vivo
[5] = AUC (0 to 12 hrs) in Sprague-Dawley rat at 40 mg/kg, po measured upto 12 hrs by mass spectrometry; type: ADME, organism-based; conditions: in vivo
[6] = Oral bioavailability in Sprague-Dawley rat at 40 mg/kg measured upto 12 hrs by mass spectrometry; type: ADME, organism-based; conditions: in vivo
[7] = Metabolic stability in human liver microsmes assessed as half life in presence of UDPGA measured upto 60 mins by HPLC analysis; type: ADME; conditions: liver microsomes
[8] = AUC (0 to 12 hrs) in Sprague-Dawley rat at 10 mg/kg, iv measured upto 12 hrs by mass spectrometry; type: ADME, organism-based; conditions: in vivo
[9] = Tmax in Sprague-Dawley rat at 40 mg/kg, po measured upto 12 hrs by mass spectrometry; type: ADME, organism-based; conditions: in vivo
[10] = AUC (0 to infinity) in Sprague-Dawley rat at 10 mg/kg, iv measured upto 12 hrs by mass spectrometry; type: ADME, organism-based; conditions: in vivo
[11] = Clearance in Sprague-Dawley rat at 10 mg/kg, iv measured upto 12 hrs by mass spectrometry; type: ADME, organism-based; conditions: in vivo
[12] = AUC (0 to infinity) in Sprague-Dawley rat at 40 mg/kg, po measured upto 12 hrs by mass spectrometry; type: ADME, organism-based; conditions: in vivo
[13] = Metabolic stability in human liver microsmes assessed as half life in presence of NADPH measured upto 60 mins by HPLC analysis; type: ADME; conditions: liver microsomes
[14] = Half life in Sprague-Dawley rat at 40 mg/kg, po measured upto 12 hrs by mass spectrometry; type: ADME, organism-based; conditions: in vivo
[15] = Metabolic stability in human liver microsmes assessed as half life measured upto 60 mins by HPLC analysis; type: ADME; conditions: liver microsomes
Mus musculus [16] = assay: Antiallergic activity against ovalbumin-sensitized food allergic Balb/c mouse model assessed as decrease in IL-4 level at 10 mg/kg treated once a day during OVA challenge phase (days 28 to 40) administered by intragastric; type: functional, organism-based; conditions: route ig, time 13.0 day
Mus musculus [17] = assay: Antiallergic activity against ovalbumin-sensitized food allergic Balb/c mouse model assessed as suppression of intestinal edema by measuring reduced intestinal damage at 10 mg/kg once a day during OVA challenge phase (days 28 to 40) administered by intragastric; type: functional, organism-based; conditions: route ig, time 13.0 day
[18] = Clearance in Sprague-Dawley rat at 40 mg/kg, po measured upto 12 hrs by mass spectrometry; type: ADME, organism-based; conditions: in vivo
Mus musculus [19] = assay: Antiallergic activity against ovalbumin-sensitized food allergic Balb/c mouse model assessed as decrease in IFN-gamma level at 10 mg/kg treated once a day during OVA challenge phase (days 28 to 40) administered by intragastric; type: functional, organism-based; conditions: route ig, time 13.0 day
Mus musculus [20] = assay: Antiallergic activity against ovalbumin-sensitized food allergic Balb/c mouse model assessed as decrease in OVA-specific IgG1 level treated once a day during OVA challenge phase (days 28 to 40) administered by intragastric; type: functional, organism-based; conditions: dose 2.5-10 mg/kg, route ig, time 13.0 day
Mus musculus [21] = assay: Antiallergic activity against passive cutaneous anaphylaxis (PCA) reaction BALB/c mouse model assessed as reduction in BSA/IgE-mediated allergic reaction in ear by measuring extravasation of Evans blue dye pretreated IG for 7 days followed administered with anti-DNP-IgE after 24 hrs treated with DNP-BSA by Evans blue dye based microscopic analysis; type: functional, organism-based; conditions: dose 2.5-10 mg/kg, time 8.0 day
Mus musculus [22] = assay: Antiallergic activity against ovalbumin-sensitized food allergic Balb/c mouse model assessed as decrease in mMCP-1 level at 2.5 to 10 mg/kg treated once a day during OVA challenge phase (days 28 to 40) administered by intragastric; type: functional, organism-based; conditions: dose 2.5-10 mg/kg, route ig, time 13.0 day
Mus musculus [23] = assay: Antiallergic activity against ovalbumin-sensitized food allergic Balb/c mouse model assessed as decrease in histamine level at 2.5 to 10 mg/kg treated once a day during OVA challenge phase (days 28 to 40) administered by intragastric; type: functional, organism-based; conditions: dose 2.5-10 mg/kg, route ig, time 13.0 day
RBL-2H3 [24] = assay: Cytotoxicity against rat RBL-2H3 cells assessed as cell viability at 5 to 100 uM incubated for 24 hrs by CCK8- assay; type: toxicity, cell-based; conditions: rbl-2h3, 24 h, dose 5-100 µM
Mus musculus [25] = assay: Antiallergic activity against ovalbumin-sensitized food allergic Balb/c mouse model assessed as suppression of spleen enlargement at 10 mg/kg once a day during OVA challenge phase (days 28 to 40) administered by intragastric; type: functional, organism-based; conditions: route ig, time 13.0 day
Mus musculus [26] = assay: Antiallergic activity against ovalbumin-sensitized food allergic Balb/c mouse model assessed as decrease in OVA-specific IgG2a level at 2.5 to 10 mg/kg treated once a day during OVA challenge phase (days 28 to 40) administered by intragastric; type: functional, organism-based; conditions: dose 2.5-10 mg/kg, route ig, time 13.0 day
Mus musculus [27] = assay: Antiallergic activity against ovalbumin-sensitized food allergic Balb/c mouse model assessed as decrease in OVA-specific IgE level treated once a day during OVA challenge phase (days 28 to 40) administered by intragastric; type: functional, organism-based; conditions: dose 2.5-10 mg/kg, route ig, time 13.0 day

SMILES: COC(=O)[C@]1(Cc2ccc(OCC=C(C)C)c(CC=C(C)C)c2)OC(=O)C(OCC=C(C)C)=C1c1ccc(OCC=C(C)C)cc1
- inhibition at 50 µM (RBL-2H3 [1]): 15.6%

SMILES: CC(C)=CCc1cc(C[C@@]2(CO)OC(=O)C(O)=C2c2ccc(O)cc2)ccc1O
- inhibition (RBL-2H3 [1]): inactive
- inhibition at 50 µM (RBL-2H3 [1]): 27.7%

SMILES: COC(=O)[C@]1(Cc2ccc(O)c(CCC(C)C)c2)OC(=O)C(O)=C1c1ccc(O)cc1
- inhibition at 50 µM (RBL-2H3 [1]): 47.9%

SMILES: C=CCOC1=C(c2ccc(OCC=C)cc2)[C@](Cc2ccc(OCC=C)c(CC=C(C)C)c2)(C(=O)OC)OC1=O
- inhibition at 50 µM (RBL-2H3 [1]): 18.4%

SMILES: COC(=O)[C@]1(Cc2ccc(OC(C)=O)c(CC=C(C)C)c2)OC(=O)C(OC(C)=O)=C1c1ccc(OC(C)=O)cc1
- inhibition at 50 µM (RBL-2H3 [1]): 11.7%

SMILES: COC(=O)[C@]1(Cc2ccc(O)c(CC=C(C)C)c2)OC(=O)C(OC)=C1c1ccc(OC)cc1
- inhibition at 50 µM (RBL-2H3 [1]): 17.1%

SMILES: COC(=O)[C@]1(Cc2ccc(OC(=O)C(C)C)c(CC=C(C)C)c2)OC(=O)C(OC(=O)C(C)C)=C1c1ccc(OC(=O)C(C)C)cc1
- inhibition at 50 µM (RBL-2H3 [1]): 6.93%

SMILES: CN1CCC(=C2c3ccccc3CC(=O)c3sccc32)CC1 [KETOTIFEN]
- IC50 (RBL-2H3 [2]): 27.9 µM

SMILES: COC(=O)[C@]1(Cc2ccc(O)c(CC=C(C)C)c2)OC(=O)C(OC(=O)C(C)C)=C1c1ccc(O)cc1
- inhibition at 50 µM (RBL-2H3 [1]): 36.7%

SMILES: COC(=O)[C@]1(Cc2ccc(OC)c(CC=C(C)C)c2)OC(=O)C(OC)=C1c1ccc(OC)cc1
- inhibition at 50 µM (RBL-2H3 [1]): 38.7%

SMILES: COC(=O)[C@]1(Cc2ccc(O)c(CC=C(C)C)c2)OC(=O)C(O)=C1c1ccc(O)cc1
- Cmax [3]: 10.8 ng/mL
- half-life [4]: 4.1 h
- AUC(0-t) at 12 h [5]: 28.9 ng·h/mL
- bioavailability [6]: 33.2%
- half-life [7]: 0.292 h
- IC50 (RBL-2H3 [2]): 13.5 µM
- AUC(0-t) at 12 h [8]: 21.7 ng·h/mL
- Tmax [9]: 0.7 h
- AUC(0-inf) [10]: 27.8 ng·h/mL
- CL ([11]; iv, 10 mg/kg, 12 h): 7202 mL/min/kg
- inhibition at 50 µM (RBL-2H3 [1]): > 90%
- AUC(0-inf) [12]: 36.9 ng·h/mL
- half-life [13]: 0.326 h
- half-life [14]: 4.7 h
- half-life [15]: 0.283 h

SMILES: COC(=O)[C@]1(Cc2ccc(O)c(CC=C(C)C)c2)OC(=O)C(OC(C)=O)=C1c1ccc(O)cc1
- inhibition at 50 µM (RBL-2H3 [1]): 33.5%

SMILES: COC(=O)[C@]1(Cc2ccc3c(c2)CCC(C)(C)O3)OC(=O)C(O)=C1c1ccc(O)cc1
- inhibition at 50 µM (RBL-2H3 [1]): 10.1%

SMILES: CC(=O)[C@]1(Cc2ccc(O)c(CC=C(C)C)c2)OC(=O)C(O)=C1c1ccc(O)cc1
- Cmax [3]: 6110 ng/mL
- half-life [4]: 2.2 h
- AUC(0-t) at 12 h [5]: 6540 ng·h/mL
- bioavailability [6]: 45.9%
- half-life [7]: 2.22 h
- Activity (Mus musculus [16]): Active
- Activity (Mus musculus [17]): Active
- IC50 (RBL-2H3 [2]): 6.7 µM
- inhibition (RBL-2H3 [2]): Dose-Dependent Effect
- CL/F [18]: 90 mL/min/kg
- AUC(0-t) at 12 h [8]: 4090 ng·h/mL
- Activity (Mus musculus [19]): Active
- Activity (Mus musculus [20]): Dose-Dependent Effect
- Activity (Mus musculus [21]): Dose-Dependent Effect
- Tmax [9]: 0.2 h
- AUC(0-inf) [10]: 4120 ng·h/mL
- Activity (Mus musculus [22]): Active
- clearance ([11]; Sprague-Dawley): 45 mL/min/kg
- Activity (Mus musculus [23]): Active
- Activity (RBL-2H3 [24]): Non-Toxic
- Activity (Mus musculus [25]): Active
- inhibition at 50 µM (RBL-2H3 [1]): > 90%
- Activity (Mus musculus [26]): inactive
- AUC(0-inf) [12]: 7560 ng·h/mL
- half-life [13]: 3.73 h
- half-life [14]: 4.1 h
- Activity (Mus musculus [27]): Dose-Dependent Effect
- half-life [15]: 8.88 h

SMILES: C=CCOC1=C(c2ccc(OCC=C)cc2)[C@](Cc2ccc(O)c(CC=C(C)C)c2)(C(=O)OC)OC1=O
- inhibition at 50 µM (RBL-2H3 [1]): 8.95%

SMILES: COC(=O)[C@]1(Cc2ccc(O)c(CC=C(C)C)c2)OC(=O)C(OC)=C1c1ccc(O)cc1
- inhibition at 50 µM (RBL-2H3 [1]): 33.2%

SMILES: COC(=O)[C@]1(Cc2ccc(O)c(CC=C(C)C)c2)OC(=O)C(OC(=O)C(C)C)=C1c1ccc(OC(=O)C(C)C)cc1
- inhibition at 50 µM (RBL-2H3 [1]): 21.3%

SMILES: CC(C)=CCc1cc(C[C@@]2(C=O)OC(=O)C(O)=C2c2ccc(O)cc2)ccc1O
- inhibition (RBL-2H3 [1]): Active
- inhibition at 50 µM (RBL-2H3 [1]): 63.9%

SMILES: C=CCOC1=C(c2ccc(O)cc2)[C@](Cc2ccc(O)c(CC=C(C)C)c2)(C(=O)OC)OC1=O
- inhibition at 50 µM (RBL-2H3 [1]): > 90%

SMILES: COC(=O)[C@]1(Cc2ccc(OC(C)=O)c(CC=C(C)C)c2)OC(=O)C(OC(C)=O)=C1c1ccc(O)cc1
- inhibition at 50 µM (RBL-2H3 [1]): 27.8%
